# Tested on: Spodoptera littoralis (Egyptian cotton leafworm)
# Experiment: Spodoptera littoralis cotton leaf disc spray test
# Type: in vivo
# Conditions: 200 ppm sprayed on cotton leaf discs, L1 larvae, 3 days after treatment; mortality, repellent effect, feeding behaviour, growth regulation
# Protocol: This Example illustrates the pesticidal/insecticidal properties of compounds of formula (I). Test against were performed as follows:
# Spodoptera littoralis (Egyptian cotton leafworm)
# Cotton leaf discs were placed on agar in a 24-well microtiter plate and sprayed with test solutions at an application rate of 200 ppm. After drying, the leaf discs were infested with 5 L1 larvae. The samples were checked for mortality, repellent effect, feeding behaviour, and growth regulation 3 days after treatment (DAT). The following compounds gave at least 80% control of Spodoptera littoralis: CIII-49.
smiles,measurement,value
"O=C(c1ccnc(Cl)c1)N1C[C@]2(CCN(C/C=C/c3ccc(Cl)cc3)C[C@H]2O)c2cc(Cl)ccc21 [CIII-49, 5-chloro-1-(2-chloropyridin-4-yl)carbonyl-1′-[trans-3-(4-chlorophenyl)allyl]-3′-hydroxy-spiro[indoline-3,4′-piperidine]]",control of Spodoptera littoralis,at least 80%

# Source: US8309567B2, “Spiroindoline derivatives having insecticidal properties” (priority 2003, dated 2012)
